Earlier results in patent US20030004143A1, “Use of NSAIDs for prevention and treatment of cellular abnormalities of the female reproductive tract” (priority 2001, published 2003).

What was measured:
[1] = system: OPC cell lines; settings: all OPC cell lines tested
[2] = system: OPC

In the case of O=C(c1ccccc1)c1ccc2n1CCC2C(=O)O (stereo not shown) [ketorolac, (.+−.)5(benzoyl)-2,3-dihydro-1H-pyrrolizine-1carboxylic acid], the IL-6 levels [1] is listed as “continuously and significantly decreased”, the IL-8 levels [1] is listed as “continuously and significantly decreased” and the PGE2 production [1] is listed as “continuously and significantly decreased”. The “OPC growth in vivo” value [2] was “reduced OPC growth in vivo”.
